Counter-ions that a name gives are not always drawn.
What was measured:
[1] = Example 4: photographic speed and fog, 365 nm exposure, blue dyed emulsion T-2; parameters: Fog: unit not given here; details: for Fog / S365: dye I 0.91 x10^-3; for S365: dyed control=100; for fog change: Table IV
Description: For photographic evaluation, each of the coating strips was exposed for 0.1 sec to a 365 nm emission line of a Hg lamp filtered through a Kodak Wratten filter number 18A and a step wedge ranging in density from 0 to 4 density units in 0.2 density steps. The exposed film strips were developed for 6 min in Kodak Rapid X-ray Developer (KRX). S365, relative sensitivity at 365 nm, was evaluated at a density of 0.2 units above fog.
An AgBrI tabular silver halide emulsion (Emulsion T-2) was prepared containing 4.05% total I distributed such that the central portion of the emulsion grains contained 1.5% I and the perimeter area contained substantially higher I, as described by Chang et. al., U.S. Pat. No. 5,314,793. […] This emulsion was precipitated using deionized gelatin. The emulsion was sulfur sensitized by adding 8.5×10^-6 mole 1,3-dicarboxymethyl-1,3-dimethyl-2-thiourea /mole Ag at 40° C.; the temperature was then raised to 60° C. at a rate of 5° C./3 min and the emulsions held for 20 min before cooling to 40° C. The chemically sensitized emulsion was then used to prepare coatings containing the fragmentable two-electron donor compounds. All of the experimental coating variations in Table III contained the hydroxybenzene 2,4-disulfocatechol (HB3) at a concentration of 13 mmole/ mole Ag, added to the melt before the addition of any further addenda. Where present, the blue sensitizing dye D-I or the red sensitizing dye D-II were added from methanol solution to the emulsion at 40° C. after the chemical sensitization and disulfocatechol addition. The fragmentable two-electron donor compounds were added to the emulsion at 40° C. and the coatings were prepared and tested as described in Example 1, except that the additional gelatin used to prepare the coatings described in Table III was deionized gelatin.
The chemically sensitized AgBrI tabular emulsion T-2 as described in Example 3 was used to prepare the experimental coating variations listed in Table IV, comparing various structurally related fragmentable two-electron donating compounds varying in first oxidation potential E1. The blue sensitizing dye D-I was added from methanol solution to the emulsion at 40° C. after the chemical sensitization. The fragmentable two-electron donating compounds were then added to the emulsion and coatings prepared and tested as described in Example 3.

[2] = Example 11: photographic sensitivity and fog, color format, blue sensitized emulsion T-2; details: for Photographic Sensitivity SWR2B: control=100
Description: The AgBrI tabular silver halide emulsion T-2 from Example 3 was optimally chemically and spectrally sensitized by adding NaSCN, 1.07 mmole of the blue sensitizing dye D-I per mole of silver, Na3 Au(S2 O3)2 ·2H2 O, Na2 S2 O3 ·5H2 O, and a benzothiazolium finish modifier and then subjecting the emulsion to a heat cycle to 65° C. The hydroxybenzene, 2,4-disulfocatechcol (HB3) at a concentration of 13×10^-3 mole/mole Ag was added to the emulsion melt before the start of the chemical sensitization procedure. This chemically sensitized emulsion was then used to prepare the experimental coating variations given in Table X. For all the variations in Table X, the antifoggant and stabilizer tetraazaindene (TAI) was added to the emulsion melt in an amount of 1.75 g/mole Ag before any further addenda. The fragmentable two-electron donors S-3, S-9, S-6, or S-8 were then added to the emulsion melt.
The melts were prepared for coating by adding additional water, deionized gelatin and coating surfactants. Coatings were prepared by combining the emulsion melts with a melt containing deionized gelatin and an aqueous dispersion of the cyan-forming color coupler CC-1 and coating the resulting mixture on acetate support. The final coatings contained Ag at 0.81 g/m^2, coupler at 1.61 g/m^2, and gelatin at 3.23 g/m^2. The coatings were overcoated with a protective layer containing gelatin at 1.08 g/m^2, coating surfactants, and a bisvinylsulfonylmethyl ether as a gelatin hardening agent. The structure of the color coupler CC-1 is given below: [drawing 120]
(§1) For photographic evaluation, each of the coating strips was exposed for 0.01 sec to a 3000K color temperature tungsten lamp filtered to give an effective color temperature of 5500K and further filtered through a Kodak Wratten filter number 2B, and a step wedge ranging in density from 0 to 4 density units in 0.20 density steps. This exposure gives light absorbed mainly by the blue sensitizing dye. The exposed film strips were developed for 31/4 minutes in Kodak C-41 color developer. SWR2B, relative sensitivity for this filtered exposure, was evaluated at a cyan density of 0.15 units above fog.
The AgBrI tabular emulsion T-2 as described in Example 3 was sensitized as described in Example 10 except that the hydroxybenzene HB3 was added at the completion of the chemical sensitization procedure. For all the variations in Table XI, the antifoggant and stabilizer tetraazaindene (TAI) was added to the emulsion melt in an amount of 1.75 g/mole Ag before any further addenda. The fragmentable two-electron donors S-12, S-14, S-13, or S-11 were then added to the emulsion melt. The melts were then coated and tested as described in Example 10.

[3] = Example 10: photographic sensitivity and fog, color format, blue sensitized emulsion T-2; details: for Photographic Sensitivity SWR2B: control=100
Description: The hydroxybenzene, 2,4-disulfocatechcol (HB3) at a concentration of 13×10^-3 mole/mole Ag was added to the emulsion melt before the start of the chemical sensitization procedure. […] The fragmentable two-electron donors S-3, S-9, S-6, or S-8 were then added to the emulsion melt.
The melts were prepared for coating by adding additional water, deionized gelatin and coating surfactants. Coatings were prepared by combining the emulsion melts with a melt containing deionized gelatin and an aqueous dispersion of the cyan-forming color coupler CC-1 and coating the resulting mixture on acetate support. […] The structure of the color coupler CC-1 is given below: [drawing 120]
as §1

For `CCSCCN(c1ccc(Cl)cc1)C(C)C(=O)O` (centres unmarked) [Compound S-12, N-(4-Chlorophenyl)-N-(2-thioethyl-ethyl)alanine sodium salt], the Fog ([1]; 0.22 x10^-3 mole/mole Ag) was 0.18, the S365 ([1]; 0.22 x10^-3 mole/mole Ag) was 145 and the Fog ([1]; 0.44 x10^-3 mole/mole Ag) was 0.21. The S365 ([1]; 0.44 x10^-3 mole/mole Ag) was 141, the Fog ([1]; 0.88 x10^-3 mole/mole Ag) was 0.29 and the S365 ([1]; 0.88 x10^-3 mole/mole Ag) was 138. The “fog change” value [1] was “modest increases in fog”, the Fog ([2]; 0.22 x10^-3 mol/molAg) was 0.11 and the “Photographic Sensitivity SWR2B” value ([2]; 0.22 x10^-3 mol/molAg) was 191. The Fog ([2]; 0.44 x10^-3 mol/molAg) was 0.16 and the “Photographic Sensitivity SWR2B” value ([2]; 0.44 x10^-3 mol/molAg) was 204.

With `CCSCCN(c1ccccc1)C(CC(=O)O)C(=O)O` (centres unmarked) [Compound S-14] the Fog ([2]; 0.22 x10^-3 mol/molAg) was 0.09, the “Photographic Sensitivity SWR2B” value ([2]; 0.22 x10^-3 mol/molAg) was 170 and the Fog ([2]; 0.44 x10^-3 mol/molAg) was 0.09. The “Photographic Sensitivity SWR2B” value ([2]; 0.44 x10^-3 mol/molAg) was 178.

`CCSCCN(c1ccccc1)C(C)C(=O)O` (centres unmarked) [Compound S-9, N-(Phenyl)-N-(2-thioethyl-ethyl)alanine sodium salt] gave a Fog ([1]; 0.22 x10^-3 mole/mole Ag) of 0.21, an S365 ([1]; 0.22 x10^-3 mole/mole Ag) of 129 and a Fog ([1]; 0.44 x10^-3 mole/mole Ag) of 0.41. For the same molecule, the S365 ([1]; 0.44 x10^-3 mole/mole Ag) was 102, the Fog ([1]; 0.88 x10^-3 mole/mole Ag) was 0.63 and the “fog change” value [1] was “modest increases in fog”. The Fog ([3]; 0.022 x10^-3 mol/mol Ag) was 0.16, the “Photographic Sensitivity SWR2B” value ([3]; 0.022 x10^-3 mol/mol Ag) was 162 and the Fog ([3]; 0.07 x10^-3 mol/mol Ag) was 0.19. The “Photographic Sensitivity SWR2B” value ([3]; 0.07 x10^-3 mol/mol Ag) was 182.

`CCSCCN(c1ccc(C(=O)O)cc1)C(C)C(=O)O` (centres unmarked) [Compound S-11] showed a Fog ([1]; 0.22 x10^-3 mole/mole Ag) of 0.05, an S365 ([1]; 0.22 x10^-3 mole/mole Ag) of 145 and a Fog ([1]; 0.44 x10^-3 mole/mole Ag) of 0.06. For the same molecule, the S365 ([1]; 0.44 x10^-3 mole/mole Ag) was 145, the Fog ([1]; 0.88 x10^-3 mole/mole Ag) was 0.07 and the S365 ([1]; 0.88 x10^-3 mole/mole Ag) was 145. For the same molecule, the Fog ([2]; 0.22 x10^-3 mol/molAg) was 0.10, the “Photographic Sensitivity SWR2B” value ([2]; 0.22 x10^-3 mol/molAg) was 166 and the Fog ([2]; 0.44 x10^-3 mol/molAg) was 0.09. For the same molecule, the “Photographic Sensitivity SWR2B” value ([2]; 0.44 x10^-3 mol/molAg) was 178.

For `CCSCCN(c1ccc(C)cc1)[C@@H](C)C(=O)[O-].[Na+]` [Compound S-3, N-(4-Methylphenyl)-N-(2-ethylthio-ethyl)alanine sodium salt], the Fog ([3]; 0.022 x10^-3 mol/mol Ag) was 0.14, the “Photographic Sensitivity SWR2B” value ([3]; 0.022 x10^-3 mol/mol Ag) was 97 and the Fog ([3]; 0.07 x10^-3 mol/mol Ag) was 0.19. The “Photographic Sensitivity SWR2B” value ([3]; 0.07 x10^-3 mol/mol Ag) was 110.

In the case of `CCSCCN(c1ccc(C)cc1)C(CC(=O)O)C(=O)O` (centres unmarked) [Compound S-8], the Fog ([3]; 0.022 x10^-3 mol/mol Ag) is reported as 0.14, the “Photographic Sensitivity SWR2B” value ([3]; 0.022 x10^-3 mol/mol Ag) is reported as 107 and the Fog ([3]; 0.07 x10^-3 mol/mol Ag) is reported as 0.23. The “Photographic Sensitivity SWR2B” value ([3]; 0.07 x10^-3 mol/mol Ag) was 110.

With `CCSCCN(c1cccc(C(N)=O)c1)C(C)C(=O)O` (centres unmarked) [Compound S-13] the Fog ([1]; 0.22 x10^-3 mole/mole Ag) was 0.10, the S365 ([1]; 0.22 x10^-3 mole/mole Ag) was 151 and the Fog ([1]; 0.44 x10^-3 mole/mole Ag) was 0.13. For the same molecule, the S365 ([1]; 0.44 x10^-3 mole/mole Ag) was 151, the Fog ([1]; 0.88 x10^-3 mole/mole Ag) was 0.14 and the S365 ([1]; 0.88 x10^-3 mole/mole Ag) was 166. The Fog ([2]; 0.22 x10^-3 mol/molAg) was 0.10, the “Photographic Sensitivity SWR2B” value ([2]; 0.22 x10^-3 mol/molAg) was 204 and the Fog ([2]; 0.44 x10^-3 mol/molAg) was 0.16. For the same molecule, the “Photographic Sensitivity SWR2B” value ([2]; 0.44 x10^-3 mol/molAg) was 209.

Reference: US5747235A, “Silver halide light sensitive emulsion layer having enhanced photographic sensitivity” (Eastman Kodak Company, priority 1996, dated 1998)
